From US6624182B1, “Hydroxyphenylvinylthiazoles” (Ciba Specialty Chemicals Corporation, priority 1999, dated 2003)

How the values were obtained:
[1] = tested on: P. aeruginosa; experiment: Determination of the minimum inhibitory concentration (MIC value) in microtitre plates; assay type: cell-based, Pseudomonas aeruginosa CIP A-22; details: Pseudomonas aeruginosa; optical density at 620 nm, 48 hours at 37° C., MIC = ≦20% growth; tested at 100; 10 and 1 ppm (approximate values); (2), (3), (4) at 120; 60; 30; 15; 7.5; 3.75 ppm
Method in brief: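 P. aeruginosa CIP A-22 at 1−5×10^6 KBE/ml, diluted 1:100 in CASO bouillon, exposed to 1:2 serial dilutions of DMSO-dissolved compound for 48 h at 37 °C, in duplicate. Growth read by OD 620 nm; MIC is the lowest concentration giving ≤20% growth relative to growth control.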

[2] = tested on: A. niger; experiment: as above; assay type: cell-based, Aspergillus niger ATCC 6275; details: Aspergillus niger, 120 h; optical density at 620 nm, 5 days at 28° C., MIC = ≦20% growth; tested at 100; 10 and 1 ppm (approximate values); (2), (3), (4) at 120; 60; 30; 15; 7.5; 3.75 ppm
Method in brief: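 A. niger ATCC 6275 spores, adjusted to 1−5×10^6 KBE/ml and diluted 1:100 in Sabouraud 2% glucose bouillon, were exposed to 2-fold dilutions of DMSO-dissolved compounds for 5 days at 28°C. Growth read as OD at 620 nm. MIC is the lowest concentration giving ≤20% growth versus growth control, tested in duplicate.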

Row | SMILES | MIC [1] [µg/mL] | MIC [2] [µg/mL]
1 | Oc1ccc(/C=C/c2nc(-c3ccc(F)cc3)cs2)cc1 [Compound of formula (2)] | > 100 | > 100
2 | CC(C)(C)c1csc(/C=C/c2ccccc2O)n1 [Compound of formula (3)] | > 100 | > 100
3 | Oc1ccc(/C=C/c2nc(-c3ccccc3)cs2)cc1 [Compound of formula (4)] | > 100 | > 100
